From patent US20230313199A1, “TARGET FOR MODULATING BODY MASS” (Massachusetts Institute of Technology, priority 2020, published 2023)

Key:
[1] = molecular target: T1, endogenous MFSD7C and SERCA2b (Mus musculus, UniProt Q91X85); test: Co-IP of endogenous MFSD7C and SERCA2b in bone marrow-derived macrophages; assay type: cell-based; details: bone marrow-derived wild-type macrophages, heme treatment
T1 construct: Co-IP and immunoblotting analysis of endogenous MFSD7C with ATP5h, SERCA2b and HMOX1 in bone marrow-derived macrophages; endogenous in cells; host or cells: bone marrow-derived macrophages from C57BL/6 mice
T1 sequence (Q91X85 whole entry): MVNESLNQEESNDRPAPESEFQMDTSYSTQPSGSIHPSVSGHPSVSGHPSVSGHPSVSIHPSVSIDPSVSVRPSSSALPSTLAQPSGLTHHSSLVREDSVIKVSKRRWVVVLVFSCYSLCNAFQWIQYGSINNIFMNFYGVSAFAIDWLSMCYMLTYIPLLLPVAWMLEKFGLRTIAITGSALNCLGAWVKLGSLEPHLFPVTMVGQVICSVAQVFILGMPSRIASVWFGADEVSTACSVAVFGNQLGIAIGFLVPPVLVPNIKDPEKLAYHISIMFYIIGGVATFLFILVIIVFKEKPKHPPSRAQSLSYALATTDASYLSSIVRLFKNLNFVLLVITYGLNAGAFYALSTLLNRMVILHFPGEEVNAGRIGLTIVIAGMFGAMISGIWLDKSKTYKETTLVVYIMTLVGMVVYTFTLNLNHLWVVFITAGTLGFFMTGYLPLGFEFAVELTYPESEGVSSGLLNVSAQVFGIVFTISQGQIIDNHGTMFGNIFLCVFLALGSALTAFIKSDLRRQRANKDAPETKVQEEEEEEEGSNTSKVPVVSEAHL
Procedure: NTD was incubated with heme and run on Superdex 75 gel filtration column. The flow through was measured for absorbance at 230 nm (gray), 380 nm (blue), and 415 nm (green). Absorbance intensity was normalized to maximum value. […] Heme (100 μM) absorption was set to zero. […] Wildtype (WT) and mutant (Mut) peptide sequences are shown. […] Shown are representative data from five separate experiments. […] Shown are immunoblots of MFSD7C, ATP5h, SERCA2b, and HMOX1 on whole lysates or immunoblots of MFSD7C on anti-ATP5h, anti-SERCA2b and anti-HMOX1 immunoprecipitates. Representative data from one from three experiments are shown. […] Shown are representative data from three separate experiments. WCE: whole cell extract, Sup: supernatant, Mito: 10,000 g mitochondrial fraction. […] THP-1 cells were stained with MitoTracker (green), fixed and permeabilized, and then stained with rabbit polyclonal antibody specific for the C-terminus of MFSD7C, followed with Alexa Fluor® 594-labelled goat anti-rabbit antibody (red). Nuclei were labeled using DAPI (blue). […]
Differentiation of bone marrow-derived macrophage (BMDM). […] Cells were resuspended in DMEM media containing 10% FBS, 2 mM L-glutamine, 2 mM pyruvate, non-essential amino acids (100 μM each), 0.55 mM 2-mercaptoethanol, penicillin/streptomycin), passed through a 40 μm Falcon cell strainer (VWR) to remove large aggregates, and counted. […]

THP-1 cells [2] = test: Mitochondrial membrane potential by TMRE and flow cytometry; assay type: cell-based, human; details: heme 1 hour, reduced to similar levels as in 7CKO cells
Procedure: Mitochondrial membrane potential was measured using Abcam kit (Catalog No. ab113852). Briefly, BMDM, THP-1 and 7CKO cells were not treated or treated with […] for 1 hour. The cells were incubated with mitochondrial membrane potential indicator, 200 nM TMRE (tetramethylrhodamine, ethyl ester) for 20 minutes. The mean fluorescence intensity of TMRE were determined by flow cytometry.

THP-1 cells [3] = test: Thermogenesis by fluorescent polymeric thermometer (FPT), flow cytometry; assay type: cell-based, human; details: heme treatment for one hour
Procedure: In the second approach, we used fluorescent polymeric thermometer (FPT), which we synthesized in-house (see above). Parental and knockout THP-1 cells were mixed together, washed and incubated with FPT in 5% w/v glucose solution for 6 hrs. The cells were washed with PBS twice and reseeded in dishes with glass bottom that was coated with poly-lysine. The cells were imaged under Confocal Laser-Scanning Microscopy at 37° C. Alternatively, THP-1, MCF7, 293T, 7CKO, SERCA2b^−/− cells were incubated with FPT and control polymer overnight and followed with vehicle or hematin treatment for 1 hour. Then the fluorescence intensities were determined by a flow cytometer.

HP motif peptide = molecular target: T2, HP motif peptide (Homo sapiens, UniProt Q9UPI3); test: Isothermal titration calorimetry of HP motif peptide binding to heme (one-site model)
T2 construct: a synthetic 14-amino acid HP motif peptide; made in house; host or cells: chemical solid-phase synthesis (Koch Institute Biopolymers & Proteomics Core)

THP-1 cells [4] = test: Oxygen consumption rate (Seahorse XF96e), parental THP-1 cells; assay type: cell-based, human; details: 40 μM heme for one hour vs vehicle
Procedure: Measurements of OCR, ECAR, and MMP. Oxygen consumption rate (OCR) and extracellular acidification rate (ECAR) were measured using XF96e Seahorse Extracellular Flux Analyzer per manufacturer's protocol. To increase adherence of suspension cells, Seahorse plates were coated with Corning® Cell TAK (Catalog No. 354240). THP-1 and 7CKO cells were then attached to the plate according to the manufacturer's instructions. Cells were incubated in complete RPMI media with or without 40 μM heme. Changes in oxygen consumption were measured following treatment with oligomycin (5 μM), FCCP (2 μM), and rotenone (1 μM) plus antimycin A (1 μM). For BMDM, 5×10^5 cells/well were plated in 100 μL of BMDM media, 24 hours before the start of the assay. For OCR measurements, BMDM media was replaced with 180 μL of Seahorse XF Base Medium supplemented with 10 mM D-glucose, 1 mM sodium pyruvate, and 1 mM L-glutamine. For ECAR measurements, BMDM media was replaced with 180 μL of Seahorse XF RPMI Medium pH 7.4 supplemented with 2 mM L-glutamine. The Glycolysis Stress Test was performed using D-glucose, rotenone/antimycin A, and 2-deoxy-D-glucose at 10 mM, 0.5 μM, and 50 mM final concentration, respectively.

THP-1 cells [5] = test: Cellular energy charge (ATP/ADP ratio); assay type: cell-based, human; details: heme 1 hour, reduced to similar levels as in 7CKO cells
Procedure: Measurement of cellular energy charge (ATP/ADP ratio). ATP/ADP ratio was measured using ADP Assay Kit (Sigma Catalog No. MAK133-1KT) following manufacturer's protocol. For THP-1 cells, 24 hours before the experiment, cells were resuspended in fresh complete RPMI media. For heme treatment, 1 mL of treated cell suspension was incubated for 1 hour at 37° C. cell culture incubator, then centrifuged and resuspended in 1 mL of fresh warm complete RPMI media in order to wash off excess heme, which interferes with the assays. […] per well (approximately 10,000 cells total) was placed in a white 96-well plate, lysed with 90 μL of ATP Buffer, and incubated with gentle shaking at room temperature for 10 min. Relative ATP amount was directly measured using luminescence. Then, 5 μL of ADP Enzyme mix was added to each well and the plate was incubated with light shaking for 3 minutes. Relative amount of ADP+ATP was measured using luminescence. ADP amount was calculated by subtracting the ATP signal from ADP+ATP signal. To get ATP/ADP ratio, ATP signal was divided by the calculated ADP signal. For BMDMs, the assay was performed following the same protocol but using 20,000 cells per well.

With C=CC1=C(C)c2cc3[n-]c(cc4[n-]c(cc5nc(cc1n2)C(C)=C5C=C)c(C)c4CCC(=O)O)c(CCC(=O)O)c3C.[Fe+2] [heme] the “co-IP of endogenous MFSD7C and SERCA2b” value [1] was “diminished”, the MMP (THP-1 cells [2]) was “reduced” and the “FPT fluorescence by flow cytometry” value (THP-1 cells [3]) was “almost all cells had dramatically increased fluorescence”. For the same compound, the “binding stoichiometry heme : HP motif peptide” value (HP motif peptide) was “one heme bound to one HP motif peptide”, the “basal OCR” value (THP-1 cells [4]) was “increased” and the “maximal OCR” value (THP-1 cells [4]) was “increased”. The ATP/ADP ratio (THP-1 cells [5]) was “reduced”.
